Experimental data taken from patent publication US20260263410A1, “USE OF CALCIUM SENSING RECEPTOR ANTAGONISTS FOR TREATING OCULAR DISORDERS” (THE REGENTS OF THE UNIVERSITY OF CALIFORNIA, priority 2023, published 2026).
Several values for one entry are separate records, joined by “and”; a condition that tells them apart may be missing. Equal entries are not always repeated.

Legend:
CFTR = assay: OSPD, forskolin / CFTRinh-172-induced change (CFTR-mediated Cl− secretion); format: in vivo, mice
Text: Using pharmacological activators and inhibitors, OSPD allows studying activities of various ion channels/transporters in the ocular surface.^12 In these studies, baseline OSPD is established using a high Cl^− solution that mimics the tear fihn. OSPD changes induced by amiloride (ENaC inhibitor) indicates Na^+ transport via ENaC. Similarly, OSPD changes induced by forskolin (cAMP agonist) and CFTRinh-172 (CFTR inhibitor) indicates Cl^− secretion via cAMP-activated Cl^− channels and particularly CFTR. Lastly, OSPD changes induced by Ca^2+ agonist ATP indicates Cl^− secretion mediated by CaCCs.
Sequential perfusion of the ocular surface with solutions containing amiloride (ENaC inhibitor), forskolin (cAMP agonist), CFTRinh-172 (CFTR inhibitor), and ATP (Ca^2+ agonist) thus allows determining activities of ENaC, CFTR, and CaCC ion channels, respectively (FIG. 4A).
Using CaSR antagonist NPS-2143 in the OSPD experiments confirmed the hypothesis. Perfusion of ocular surface with 30 μM NPS-2143 led to large hyperpolarization (−13 mV), which was 70% of subsequently applied maximal forskolin-induced hyperpolarization after which cAMP agonist forskolin had minimal further secretory effect (FIGS. 6A and 6B). […]
Ocular surface potential difference (OSPD) and tear fluid volume measurements were performed in mice with topically applied cinacalcet (CaSR activator) and NPS-2143 (CaSR inhibitor). […] As described previously,^12, 14, 15 open-circuit transepithelial potential differences were measured in response to serial perfusions of different isoosmolar (310 mOsm/kg H2O) solutions over the ocular surface at 5-10 ml/min. […] Each solution was perfused onto the ocular surface using a gravity perfusion system (ALA Scientific: Farmingdale, NY, USA) for 1-3 minutes until a stable OSPD reading was obtained.

[1] = Tear fluid volume by endodontic absorbent paper point tear test (EAPPTT); format: in vivo, BALB/c mice
Protocol: Endodontic absorbent paper point tear tests (EAPPTT) […] PBS with 30 μM NPS-2143 (or 0.2% DMSO control) in both eyes. […] The wetted length was measured using a millimeter-scale ruler viewed under a magnifying glass. All mice were kept at ambient conditions (approximately 50% humidity and 21° C.) and provided unrestricted access to food and water.

SMILES	reversal of effect by CFTR inhibitor CFTRinh-172 (CFTR; 10 μM CFTRinh-172 after NPS-2143 and forskolin)	Cl− secretory effect in mouse ocular surface (CFTR; applied topically)	increase in tear fluid volume ([1]; single dose topical 0.001% or 30 μM, for at least eight hours)	increase in tear fluid volume ([1]; topical 0.001% or 30 μM, single 10 μL dose, as early as 15 minutes after treatment)	inhibition of CFTR activity (lower CFTRinh-172 response) (CFTR; 30 μM cinacalcet, 10 μM CFTRinh-172, concentration-dependent)
CC(C)(Cc1ccc2ccccc2c1)NC[C@@H](O)COc1cccc(Cl)c1C#N [NPS-2143, 2-chloro-6-[(2R)-3-([1,1-dimethyl-2-(2-naphthalenyl)ethyl]amino)-2-hydroxypropoxy]benzonitrile]	partially reversed	large Cl^− secretory current	> 60%	60% and ~ 60%	–
C[C@@H](NCCCc1cccc(C(F)(F)F)c1)c1cccc2ccccc12 [cinacalcet]	–	–	–	–	up to 90%
